Source: ChEMBL document CHEMBL3886376, “Bicyclic pyridazine compounds as Pim inhibitors” (2015)

Legend:
[1] = target: Serine/threonine-protein kinase pim-2 (Homo sapiens, UniProt Q9P1W9); assay: (§1) PIM Enzyme Assay: The assay for the determination of Pim activity is based on the formation of phosphorylated biotinylated-BAD peptide at the Serine 112 residue (S112) and employs HTRF (homogeneous time resolved fluorescence) technology to detect the product in a 96-well plate format. The phosphorylation of biotinylated-BAD (S112) peptide by full length recombinant Pim-1, Pim-2, or Pim-3 protein was detected with streptavidin:Allophycocyanin (APC) conjugate and a europium (Eu) labeled antibody directed against phosphorylated-BAD (S112). Excitation of Eu by a high energy laser light (337 nm) leads to a transfer of energy to the APC molecule, and results in an emission at 665 nm. The fluorescence is directly proportional to the amount of phosphorylated BAD peptide present in the reaction.Compounds were prepared in DMSO by conducting 3-fold serial dilutions to give a 10-point dosing curve having a high dose of 1 uM. A reference compound was included on each assay plate in order to validate that plate.
[2] = target: Serine/threonine-protein kinase pim-1 (Homo sapiens, UniProt P11309); assay: as §1

IC50 [1]: 27 nM | IC50 [2]: 4 nM
Compound: N[C@H]1CCC[C@@H](c2ccncc2Nc2ncc3ccc(-c4c(F)cccc4F)nn23)C1 (mixture of isomers)
